In data set [1] the test system is patients with mild to moderate Alzheimer's disease. The note with it: especially at the higher doses where it is most effective; cited from earlier work.
Data set [2] has the same test system. The note with it: cited from earlier work.
The next data set addresses ml muscarinic receptor (Homo sapiens, UniProt P11229). In words: biochemical. In kind it is binding.
Data set [3] deals with T1, M1 acetylcholine receptors (ml receptors in CHO cells) (Homo sapiens, UniProt P11229).
T1 sequence (P11229 1-460): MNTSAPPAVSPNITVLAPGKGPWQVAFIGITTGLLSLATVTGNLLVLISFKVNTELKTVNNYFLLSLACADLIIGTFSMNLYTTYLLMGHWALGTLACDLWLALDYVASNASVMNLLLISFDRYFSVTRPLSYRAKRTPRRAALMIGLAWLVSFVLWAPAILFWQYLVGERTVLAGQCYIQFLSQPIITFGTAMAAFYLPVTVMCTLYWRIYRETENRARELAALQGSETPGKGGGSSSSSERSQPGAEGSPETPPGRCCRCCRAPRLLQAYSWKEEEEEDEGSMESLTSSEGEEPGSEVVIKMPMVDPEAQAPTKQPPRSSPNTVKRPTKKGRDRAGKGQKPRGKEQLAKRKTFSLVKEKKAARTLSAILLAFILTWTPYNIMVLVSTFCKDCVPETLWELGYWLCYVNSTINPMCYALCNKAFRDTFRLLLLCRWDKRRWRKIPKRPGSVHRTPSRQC
In words: cell-based. The settings on record: at 30x Ki (μM), carb = 100%, 1 h, 37° C., read-out: % PI Hydrolysis ml receptors in CHO cells.

The conditions of data set [4]: continuous infusion over 2 weeks used because of it; cited from earlier work.
The conditions of data set [5]: quaternary ammonium group; background statement; cited from earlier work.
In a further data set the test system is ml receptors. The note with it: background statement; cited from earlier work.

Structures are written as SMILES. Counter-ions that a name gives are not always drawn.

With `Nc1c2c(nc3ccccc13)CCCC2` [tacrine], in data set [1], the adverse side effects result was “adverse side effects especially at the higher doses where it is most effective”. Moreover, the improvement in memory entry in data set [2] is recorded as “improvement in memory can be shown in patients with mild to moderate Alzheimer's disease”.

By Ki is commonly meant the dissociation constant of the complex between target and ligand, obtained from inhibition or displacement. Read a low Ki as higher affinity. `Cc1nnc(NCCN2CC3CCC(CC3)C2)n2cccc12` [Example 3, [4-(3-Azabicyclo[3.2.2]non-3-yl)ethyl]-(1-methylpyrrolo[1,2-d][1,2,4]triazin-4-yl)amine dihydrochloride]: on ml muscarinic receptor, affinity was put at a Ki of 4.45 µM. Besides, the Emax in data set [3] is 24%.

The molecule `Cc1nnc(NCCCN2CC3CCC(CC3)C2)n2cccc12` [Example 2, [4-(3-Azabicyclo[3.2.2.]-3-propyl]-(1-methylpyrrolo[1,2-d][1,2,4]triazin-4-yl)aminedihydrochloride] gave a Ki on ml muscarinic receptor of 1.39 µM.

Regarding `COC(=O)C1=CCCN(C)C1` [arecoline], in data set [2], the improvement in memory entry is recorded as “memory improvement in patients with mild to moderate Alzheimer's disease”. Moreover, the half-life entry in data set [4] is given as “short half-life”.

Consider `C[N+](C)(C)CCOC(N)=O` [carbachol], for which the “ability to enter the CNS” value in data set [5] is recorded as “not able to enter the CNS”. Also, in the data set with ml receptors, the “activation of ml receptors” value is reported as “able to fully activate ml receptors”.

Regarding `Cc1nnc(NCCCCN2CC3CCC(CC3)C2)n2cccc12` [Example 1, [4-(3-Azabicyclo[3.2.2]-3-yl)-butyl]-(1-methylpyrrolo[1,2-d][1,2,4]triazin-4-yl)amine dihydrochloride], the affinity on ml muscarinic receptor, expressed as Ki, was 0.31 µM.

`C[C@@H]1O[C@H](C[N+](C)(C)C)C[C@H]1O` [muscarine]: in data set [5], the “ability to enter the CNS” value is reported as “not able to enter the CNS”. In the data set on ml receptors, the “activation of ml receptors” value is “able to fully activate ml receptors”.

What is called IC50 is the midpoint of a concentration-inhibition curve. A higher IC50 goes with weaker potency in that assay. With `Cc1nnc(NC2CN3CCC2CC3)n2cccc12` (stereo not shown) [Example 4, (1-Azabicyclo[2.2.2]oct-3-yl)-1-methylpyrrolo[1,2-d][1,2,4]triazin-4-ylamine dihydrochloride], at ml muscarinic receptor, half-maximal inhibition (IC50) required 20.2 µM.
